Results taken from the supplement of paper PMC10307832.

How the values were obtained:
Test in all cases: relative viability (nuclei count vs DMSO), 5 days (fraction); higher = more cells survive
Doramapimod + Decitabine = compound: Cc1ccc(-n2nc(C(C)(C)C)cc2NC(=O)Nc2ccc(OCCN3CCOCC3)c3ccccc23)cc1 [Doramapimod] + Nc1ncn([C@H]2C[C@H](O)[C@@H](CO)O2)c(=O)n1 [Decitabine] (partner 2 µM)
Outline: (§1)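 Cells from lung cancer lines were seeded into 1536-well plates and, one day later, dosed by pin tool. Treatments were either a single drug or a fixed dose of an anchor drug with five library-drug doses (not always all listed) in √10 steps. After 5 days, nuclei were stained in a one-step fixation (final 0.05% Triton X-100, 1% formaldehyde, 1 ug/ml Hoechst) and counted on 4× images, and relative viability is the treated-to-vehicle nuclei ratio, as the median of duplicate plates.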

RAF265 + Vorinostat = compound: Cn1c(Nc2ccc(C(F)(F)F)cc2)nc2cc(Oc3ccnc(-c4ncc(C(F)(F)F)[nH]4)c3)ccc21 [RAF265] + O=C(CCCCCCC(=O)Nc1ccccc1)NO [Vorinostat] (partner 1 µM)
Outline: as §1

RAF265 + Palbociclib = compound: Cn1c(Nc2ccc(C(F)(F)F)cc2)nc2cc(Oc3ccnc(-c4ncc(C(F)(F)F)[nH]4)c3)ccc21 [RAF265] + CC(=O)c1c(C)c2cnc(Nc3ccc(N4CCNCC4)cn3)nc2n(C2CCCC2)c1=O [Palbociclib] (partner 0.5 µM)
Outline: as §1

Doramapimod + Alpelisib = compound: Cc1ccc(-n2nc(C(C)(C)C)cc2NC(=O)Nc2ccc(OCCN3CCOCC3)c3ccccc23)cc1 [Doramapimod] + Cc1nc(NC(=O)N2CCC[C@H]2C(N)=O)sc1-c1ccnc(C(C)(C)C(F)(F)F)c1 [Alpelisib] (partner 2 µM)
Outline: as §1

Row | Cell Line | relative viability (Doramapimod + Decitabine; first compound 0.02 µM) | relative viability (Doramapimod + Decitabine; first compound 0.06325 µM) | relative viability (Doramapimod + Decitabine; first compound 0.2 µM) | relative viability (Doramapimod + Decitabine; first compound 0.6325 µM) | relative viability (Doramapimod + Decitabine; first compound 2 µM) | relative viability (RAF265 + Vorinostat; first compound 0.01 µM) | relative viability (RAF265 + Vorinostat; first compound 0.03162 µM) | relative viability (RAF265 + Vorinostat; first compound 0.1 µM) | relative viability (RAF265 + Vorinostat; first compound 0.3162 µM) | relative viability (RAF265 + Vorinostat; first compound 1 µM) | relative viability (RAF265 + Palbociclib; first compound 0.01 µM) | relative viability (RAF265 + Palbociclib; first compound 0.03162 µM) | relative viability (RAF265 + Palbociclib; first compound 0.1 µM) | relative viability (RAF265 + Palbociclib; first compound 0.3162 µM) | relative viability (RAF265 + Palbociclib; first compound 1 µM) | relative viability (Doramapimod + Alpelisib; first compound 0.02 µM) | relative viability (Doramapimod + Alpelisib; first compound 0.06325 µM) | relative viability (Doramapimod + Alpelisib; first compound 0.2 µM) | relative viability (Doramapimod + Alpelisib; first compound 0.6325 µM) | relative viability (Doramapimod + Alpelisib; first compound 2 µM)
1 | NCI-H1355 | 0.372 | 0.357 | 0.347 | 0.407 | 0.359 | 0.641 | 0.607 | 0.578 | 0.604 | 0.419 | 0.449 | 0.364 | 0.328 | 0.248 | 0.181 | 0.739 | 0.793 | 0.754 | 0.868 | 0.732
2 | EKVX | 0.404 | 0.313 | 0.289 | 0.31 | 0.239 | 0.775 | 0.659 | 0.87 | – | 0.581 | 0.429 | 0.405 | 0.416 | 0.249 | 0.276 | 0.826 | 0.755 | 0.773 | 1 | 0.833
3 | NCI-H441 | 0.238 | 0.216 | 0.268 | 0.238 | 0.194 | 0.802 | 0.712 | 0.643 | 0.715 | 0.421 | 0.212 | 0.237 | 0.233 | 0.171 | 0.183 | 0.694 | – | 0.813 | 0.704 | 0.779
4 | NCI-H1975 | 0.384 | 0.451 | 0.335 | 0.386 | 0.301 | 0.718 | 0.644 | 0.542 | 0.338 | 0.325 | 0.609 | 0.396 | 0.263 | 0.184 | 0.182 | 0.756 | 0.674 | 0.69 | 0.77 | 0.676
5 | HCC-78 | 0.753 | 0.794 | 0.635 | 0.609 | 0.624 | 0.459 | 0.485 | 0.464 | 0.645 | 0.406 | 0.513 | 0.476 | 0.458 | 0.394 | 0.463 | 0.288 | 0.327 | 0.325 | 0.343 | 0.285
6 | NCI-H2085 | 0.612 | 0.526 | 0.563 | 0.584 | 0.56 | 0.891 | 0.714 | 0.82 | 0.788 | 0.803 | 0.49 | 0.477 | 0.483 | 0.506 | 0.52 | 1.03 | 0.928 | 0.839 | 0.913 | 0.93
7 | H3255 | 0.688 | 0.581 | 0.767 | – | 0.569 | 0.889 | 0.748 | 0.804 | 0.231 | 0.413 | 0.323 | 0.316 | 0.321 | – | 0.331 | 0.785 | 0.659 | 0.705 | 0.83 | 0.621
